Measured values reported in patent US11723907B2, “Anti-aging compounds” (THE CLEVELAND CLINIC FOUNDATION, priority 2017, dated 2023).

Tests used:
[1] = cited from earlier work
cytochrome c = assay: Enzymatic NAD(P)H oxidation / cytochrome c reduction catalyzed by N2N1; format: biochemical; conditions: inhibitor 2 μM
Protocol: FIGS. 5A-5C provide graphs and schemes relating to the N2N1 mechanism of action. […] No specific substrate was added into reaction mix, therefore, it was concluded that reaction was driven by slow reduction of molecular oxygen dissolved into reaction buffer. The hypothetical reaction equation is shown below reaction plots. (B) The proposed molecular mechanism of possible substrate reduction catalyzed by N2N1. (C) Addition of peroxide or cytochrome c into reaction allowed us to identify cytochrome c as the most preferable substrate for the N2N1 driven enzymatic reaction. […] It was interesting to notice that addition of cytochrome c to non-enzymatic reaction reduced the reaction rate. […] The hypothetical reaction equation is show below the reaction plots.
FIGS. 6A-6B provide graphs showing the enzymatic reduction of cytochrome C catalyzed by N2N1 can utilize both NADH and NADPH. (A) The enzymatic electrons transfer from NADH to cytochrome c driven by N2N1 was monitored by decrease in absorption at 340 nm (NADH) and increase in absorption at 550 nm (cytochrome c). The absorbance spectrum was screened at the end of the reaction (˜1 hour). The hypothetical reaction equation is shown below the reaction plots. (B) The enzymatic electrons transfer from NADPH to cytochrome c driven by N2N1 was monitored by decrease in absorption at 340 nm (NADPH) and increase in absorption at 550 nm (cytochrome c). The hypothetical reaction equation is shown below the reaction plots.
To evaluate possible participation of mitochondrial NADH oxidoreductases, in particular Complex I and III, the […] was run in the presence of rotenone or antimycin A (2 μM). The acquired data allowed us to specify the most probable candidate that carry out the transfer electrons from NAD(P)H to cytochrome C driven by N2N1. The NQO1 protein would be the most likely candidate, while proteins from CYB5 family still cannot be ruled out.
Bonkowski et al., Nature reviews. Molecular cell biology 17, 679-690 (2016); Orr et al., Antioxidants & redox signaling 19, 788-803 (2013). It quite possible, that NAD(P)H oxidation catalyzed by N2N1 is performed by NADH:cytochrome b5 reductases (CYB5 . . . ) or NAD(P)H:quinone oxidoreductase (NQO1) reductase (FIG. 3C). The inventors found by RNA-seq analysis that fourteen genes from CYB5 family were expressed in normal fibroblast. NQO1 was also detected at the high level of expression. These reductases connect aerobic metabolism with aging by directed electron flow from NAD(P)H to oxygen, cytochrome C, and peroxide. Jimenez-Hidalgo et al., Aging cell 8, 140-151 (2009). […]

Compound | water solubility [1] | suppression of enzymatic reduction of cytochrome c catalyzed by N2N1 (cytochrome c)
CO[C@H]1C[C@@H]2CC[C@@H](C)[C@@](O)(O2)C(=O)C(=O)N2CCCC[C@H]2C(=O)O[C@H]([C@H](C)C[C@@H]2CC[C@@H](O)[C@H](OC)C2)CC(=O)[C@H](C)/C=C(\C)[C@@H](O)[C@@H](OC)C(=O)[C@H](C)C[C@H](C)/C=C/C=C/C=C/1C [Rapamycin] | poor | 
C=C(C)[C@H]1Cc2c(ccc3c2O[C@@H]2COc4cc(OC)c(OC)cc4[C@@H]2C3=O)O1 [rotenone, reference compound] |  | did not suppress
antimycin A [reference compound] |  | did not suppress
